Assay results published in doi:10.1101/2021.09.30.462449v1 (biorxiv, 2021).

Molecular target: PL^pro (Severe acute respiratory syndrome coronavirus 2, UniProt P0DTD1)
Assay: FRET peptide cleavage assay
Format: biochemical

**Q.** How did the IC50 turn out when COc1ccc2nc3cc(Cl)ccc3c(Nc3ccc(O)cc3)c2c1 [compound 2, 4-[(6-chloro-2-methoxyacridin-9-yl)amino]phenol] was run?
**A.** Its IC50 is greater than 20 µM.

**Q.** With COc1ccc2nc3cc(Cl)ccc3c(Nc3cc(CN(C)C)c(O)c(CN(C)C)c3)c2c1 [compound 3, 4-[(6-chloro-2-methoxyacridin-9-yl)amino]-2,6-bis[(dimethylamino)methyl]phenol] as the molecule, how does the IC50 read?
**A.** The IC50 was 3.28 ± 0.4 µM.

**Q.** COc1ccc2nc3cc(Cl)ccc3c(Nc3ccc(O)c(CN4CCCC4)c3)c2c1 [compound 4, 4-[(6-chloro-2-methoxyacridin-9-yl)amino]-2-(pyrrolidin-1-ylmethyl)phenol] was tested. Which IC50 did it give?
**A.** Its IC50 is 2.56 ± 0.28 µM.

**Q.** Which IC50 does the source give for COc1ccc2nc3cc(Cl)ccc3c(Nc3cc(CN4CCCC4)c(O)c(CN4CCCC4)c3)c2c1 [compound 5, 4-[(6-chloro-2-methoxyacridin-9-yl)amino]-2,6-bis(pyrrolidin-1-ylmethyl)phenol] here?
**A.** The IC50 was 2.44 ± 0.53 µM.

**Q.** Which IC50 does the source give for COc1ccc2nc3cc(Cl)ccc3c(O)c2c1 [compound 6, 6-chloro-2-methoxyacridin-9-ol] here?
**A.** Its IC50 is greater than 20 µM.

**Q.** With COc1ccc2nc3cc(Cl)ccc3c(N3CCOCC3)c2c1 [compound 7, 6-chloro-2-methoxy-9-morpholin-4-ylacridine] as the molecule, how does the IC50 read?
**A.** Its IC50 is greater than 20 µM.

**Q.** For N#Cc1c(N2CCOCC2)ncc2cc3ccccc3nc12 [compound 9, 3-morpholin-4-ylbenzo[b]-1,6-naphthyridine-4-carbonitrile], which IC50 is on record?
**A.** The IC50 was greater than 20 µM.

**Q.** Which IC50 does the source give for N#Cc1c(N2CCOCC2)ncc2c(=O)c3ccccc3[nH]c12 [compound 10, 3-morpholin-4-yl-10-oxo-5,10-dihydrobenzo[b]-1,6-naphthyridine-4-carbonitrile] here?
**A.** Its IC50 is greater than 20 µM.
